The source of these data is US7629308B2, “Methods relating to muscle selective calcineurin interacting protein (MCIP)” (Board of Regents, The University of Texas System, priority 2000, dated 2009).

Where “and” joins values, the source holds several entries; their conditions need not be identical. Equal entries are not always repeated.

In one experiment the target is T1, calcineurin A (Mus musculus, UniProt P63328).
T1 construct: calcineurin A (amino acids 1-398) was translated in rabbit reticulocyte lysates; made in house; host or cells: calcineurin A: rabbit reticulocyte lysate (TNT coupled transcription/translation, Promega); GST-MCIP1: bacteria (pGEX-CS)
In words: In vitro protein-protein interaction assay (GST pull-down). The experiment is classed as binding. The procedure: In Vitro Protein-Protein Interaction Assays—GST and GST-MCIP1 fusion proteins were prepared as described previously (Grayson et al., 1998). [^35S]Methionine labeled CnA398, CnA342, and CnA266 were produced in the TNT coupled in vitro transcription/translation system (Promega). For in vitro binding assays, equivalent amounts of GST fusion proteins bound to glutathione were resuspended in 500 μl of binding buffer (20 mM Tris, pH 7.5, 100 mM KCl, 0.1 mM EDTA, 0.05% Nonidet P-40, 10% glycerol, and 1 mg/ml bovine serum albumin). [^35S]Methionine-labeled CnA proteins were added to the resuspended GST fusion proteins and incubated for 1 h. The beads were then spun down and washed three times in binding buffer. An equal volume of 2×SDS-PAGE loading buffer was added, and the suspension was boiled for 3 min. The bound proteins were then resolved on SDS-PAGE and visualized by autoradiography. ^35S-Labeled luciferase protein (Promega) was used as a negative control. For estimation of binding efficiency, 25% of the radiolabeled protein was loaded as an input control.

Experiment [1] has as its system constitutively active form of NFATc. In words: IL-2-luc reporter driven by constitutively active NFAT in C2C12 cells. The class given is cell-based, mouse. An excerpt: (§1) GST-MCIP1 fusions were expressed from the bacterial expression plasmid pGEX-CS (T. D. Parks, et al. 1994). Luciferase reporter plasmids, Mb-luc and IL-2-luc, were constructed in pGL3 (Promega) by inserting promoter/enhancer regions from genes encoding human myoglobin (Chin et al., 1998) or IL-2 (Clipstone et al., 1992), respectively. In addition, a synthetic enhancer consisting of three copies of a high affinity MEF2 binding sequence from the desmin promoter (Naya et al., 2000) was linked to a minimal promoter (hsp68) and inserted into pGL3 yielding the des-MEF-luc reporter. The β-galactosidase reporter plasmid pCMV-lacZ (J. Grayson, et al. 1998), and expression vectors encoding constitutively active forms of NFAT (Molkentin et al., 1998), calcineurin (CnA*) (Chin et al., 1998, O'Keefe et al., 1992), or calmodulin dependent protein kinase type IV (CaMKIV) (Ho et al., 1996), were previously described. The identity of plasmid constructions was confirmed by restriction mapping and partial DNA sequencing.
(§2) Myoblasts were harvested 24 h after transfection.

For experiment [2], the system named is cardiac hypertrophy. In words: Cardiac hypertrophy after isoproterenol infusion or wheel running exercise. The class given is in vivo, mouse. The procedure: Intact animal studies: In addition to the genetic cross to α-MHC-CnA* animals, α-MHC-hMCIP1 transgenic mice and wild-type littermates were subjected to two independent stimuli known to provoke cardiac hypertrophy. Twelve-week old and 28-week old male mice were surgically implanted with a subcutaneous mini-osmotic pump (Alzet model 2001) that released isoproterenol in 0.9% NaCl at a rate of 28 mg per hour per […] of body weight over a seven day period. Control pumps delivered a 0.9% NaCl solution. Hearts were harvested on day eight. The heart body weight ratio (htw/bw) of isoproterenol-treated, animals were compared to the mean htw/bw ratio of age matched saline-treated animals of the same genotype. For exercise-induced hypertrophy, 28-week old male animals were placed in individual cages where they had free access to a running wheel. The number of revolutions was monitored continuously for 28 days. The animals ran an average of 3 to 5 kilometers a day. The heart body weight ratios (htw/bw) of the exercised animals were compared to the mean htw/bw ratios of age-matched sedentary animals of the same genotype. A Wilcoxon rank sum test was used to determine statistically significant differences among treatment groups (p<0.05). All animal protocols were reviewed and approved by the appropriate institutional review boards.

In the next experiment the test system is calcineurin. Nature of the experiment: Luciferase reporter assays of calcineurin-dependent transcription in C2C12 cells. The experiment is classed as cell-based, mouse.
From the text: as §1, §2
Cell culture studies: C2C12 myoblasts were maintained and transfected as previously described (Rothermel et al., 2000). Luciferase assays of whole cell extracts were performed as previously described (Rothermel et al., 2000). All results were corrected for variations in transfection efficiency by normalization to expression of a cotransfected pCMV-LacZ plasmid.
Background: A reporter such as luciferase makes a cellular process visible.

Another experiment concerns Gal4-VP16. The settings on record: C2C12 cells.
Experiment [3] deals with MCIP2 mRNA. In words: Northern blot of MCIP2 mRNA in C2C12 cells. The experiment is classed as cell-based, mouse. As for the experimental part:
(§3) Tissue culture, cell transfection or infection, reporter gene assays: C2C12 myoblasts and myotubes were cultured as previously described (Grayson et al, 1995). Ionomycin ([…]) and cyclosporin A (50 to 200 nM) were added 4 hrs prior to harvesting the cells. When included, cyclohexamide (25 mM) was added 15 min prior to ionomycin. Transient transfection with plasmids or infection with recombinant, replication-defective adenoviruses, and luciferase assays were performed as previously reported (Chin et al, 1998; Rothermel et al., 2000; Wu et al., 1973).
(§4) RNA isolation and Northern blot analysis: Total RNA was prepared from mouse tissues or C2C12 cells using Tripure (Boehringer Mannheim, Inc.) following the manufacturer's protocol. Northern blot analysis was performed with […] of total RNA in each lane and probed in Ultrahyb (Ambion) with complementary sequences representing the 3′ UTR of MCIP1 (common to all known splicing variants), exon 1 of MCIP1, exon 4 of MCIP1, or ORF segments of MCIP2 or GAPDH cDNA. Probes were generated by PCR and labeled as described previously (Rothermel et al., 2000). Signals from Northern blots were detected on a Storm PhosphorImager (Molecular Dynamics) and quantified using ImageQuant (version 1.2).

Experiment [4] concerns MCIP1 mRNA. Nature of the experiment: Northern blot of MCIP1 mRNA in C2C12 cells. The class given is cell-based, mouse. The procedure: as §3, §4
Experiment [5] deals with MCIP2 mRNA. In words: Northern blot of MCIP2 mRNA in mouse heart and soleus. The class given is in vivo. The procedure: (§5) Animal experiments: Lines of transgenic mice in which the cc myosin heavy chain promoter is used to drive expression of a constitutively active form of calcineurin selectively in the heart were generated and described previously (Molkentin et al., 1998). Wildtype male C57B1/6 mice were injected intraperitoneally with 3, 5, 3′-triiodothyromine (T3) ([…]) or an equal volume of 0.9% saline once a day for ten days (Robbins & Swain, 1992). All experiments involving animals were conducted using IACRAC-approved protocols.
as §4

Experiment [6] concerns MCIP1 mRNA. Nature of the experiment: Northern blot of MCIP1 mRNA in mouse heart and soleus. The experiment is classed as in vivo. The procedure: as §5, §4
Experiment [7] deals with cardiac hypertrophy. In words: Hyperthyroid cardiac hypertrophy induced by T3 injection. The experiment is classed as in vivo, mouse. The settings on record: ten days i.p.; n=4. The procedure: as §5
Where [8] appears, read: C2C12, single culture dish, normalized to GAPDH mRNA.
Where [9] appears, read: Heart, i.p. once a day for ten days.
The mark [10] stands for this setting: Soleus, pooled muscles from two animals.

Method for Gal4-VP16: Tissue Culture, Cell Transfection, and Reporter Gene Assays—C2C12 myoblasts were grown in Dulbecco's modified Eagle's medium supplemented with 20% fetal bovine serum and antibiotics (100 units of penicillin and 100 g of streptomycin/ml). Myotube formation was induced by switching confluent cells to differentiation media (Dulbecco's modified Eagle's medium supplemented with 2% heat-inactivated horse serum) for 48-72 h. For transient transfection assays, C2C12 cells were plated 12 h before transfection in 12-well tissue culture dishes at 5×10^4 cells/well, and transfected with a total of 0.5 μg of plasmid DNA using LipofectAMINE Plus (Life Technologies, Inc.). Myoblasts were harvested 24 h after transfection. Myotubes were obtained by shifting cultures to differentiation media 24 h after transfection and harvesting 48 h later. To stimulate transfected cells, 1 μM ionomycin and 10 ng/ml phorbol myristate acetate (PMA) were added 4.5 h prior to harvesting. Luciferase assays of whole cell extracts were conducted as described previously (Yang et al., 1997).

Consider “MCIP1: myocyte-enriched calcineurin interacting protein 1, product of human gene DSCR1; expressed from transfected plasmid or transgene”, for which the “binding to CnA(342)” value with calcineurin A (lacks calmodulin and calcineurin B binding regions) is “did not disrupt the interaction”. Besides, the “binding to CnA(266)” value in the experiment with calcineurin A (lacks carboxyl-terminal half of the catalytic domain) is reported as “no longer capable of binding”. Also, the “effect on transcriptional activation mediated by NFAT (IL-2-luc)” value in experiment [1] is reported as “does not inhibit”. In addition, in the experiment with cardiac hypertrophy [2] (α-MHC-hMCIP1 transgenic mice, isoproterenol over seven days), the “percent increase in heart weight to body weight ratio” value turned out to be 9.4±0.87%. Besides, the “effect on activation of the des-MEF2-luc reporter by CnA* alone or CnA* with CaMKIV” value in the experiment on calcineurin (C2C12 cells) is on record as “inhibited”. The “effect on calcineurin response of the MCIP1 (−874 to +30)-luciferase reporter” value with calcineurin (C2C12 cells, not shown) is given as “represses this response”. Moreover, in the experiment on calcineurin (C2C12 myoblasts and myotubes), the “effect on activation of IL-2 and Mb enhancer constructs by CnA*” value is listed as “abolished”. The “inhibition of calcineurin induction of the IL-2-Luc reporter gene” value in the experiment on calcineurin (C2C12 myoblasts, pCMV-CnA*) was “almost completely inhibit”. In the experiment with calcineurin (TATA-luc, IL-2-luc, Mb-luc, no CnA*), the “effect alone on activity of reporter constructs” value is reported as “no effect”. The “effect on PMA/ionophore activation of the myoglobin enhancer (Mb-luc)” value with calcineurin (endogenous calcineurin, C2C12 myoblasts and myotubes) is “inhibited”. Further, in the experiment on Gal4-VP16, the “effect on Gal4-VP16 induction of UASg-TATA-luc” value is “not affected”.

Turning to `C[C@H](CCC(=O)O)C[C@H](C)C[C@H](C)C(=O)/C=C(\O)[C@H](C)C[C@H](C)C/C=C/[C@@H](C)[C@@H](O)[C@@H](C)[C@@H](O)C[C@@H]1CC[C@@](C)([C@H]2CC[C@@](C)([C@@H](C)O)O2)O1` [Ionomycin, ionomycin], in the experiment on MCIP2 mRNA [3] (setting [8]), the “MC1P2 (fold change in mRNA), Response to Calcineurin Activation” value is 0.94 fold and 1.00 fold and 1.12 fold. For the same molecule, in the experiment on MCIP2 mRNA [3] (C2C12 cells), the “expression of MCIP2 mRNA” value was “unaffected”. Besides, the “MC1P1 (fold change in mRNA), Response to Calcineurin Activation” value with MCIP1 mRNA [4] (setting [8]) was 2.42 fold and 1.94 fold and 1.26 fold. In addition, the “up-regulation of MCIP1 mRNA in the presence of cyclohexamide” value with MCIP1 mRNA [4] (C2C12 cells, cyclohexamide added 15 min prior) is approximately 10 fold. Besides, the “induction of MCIP1 mRNA” value with MCIP1 mRNA [4] (C2C12 myoblasts or myotubes, cyclohexamide absent) is 2 fold. Also, the “increase of MCIP1 mRNA in the absence of cyclosporin” value in the experiment on MCIP1 mRNA [4] (compared to cells treated with the highest dose of cyclosporin) is on record as 4 fold.

In the case of `CC(C)NCC(O)c1ccc(O)c(O)c1` (stereo not shown) [isoproterenol], the “percent increase in heart weight to body weight ratio” value in the experiment on cardiac hypertrophy [2] (male wild-type mice, isoproterenol by osmotic minipump over seven days) was determined as 22.8±1.95%.

`N[C@@H](Cc1cc(I)c(Oc2ccc(O)c(I)c2)c(I)c1)C(=O)O` [T3, 3,5, 3′-triiodothyromine]: the “MC1P2 (fold change in mRNA), Response to Thyroid Hormone” value with MCIP2 mRNA [5] (setting [9]) was 1.59 fold and 1.81 fold and 1.71 fold; in the experiment with MCIP2 mRNA [5] (setting [10]) it was 1.72 fold and 2.21 fold and 1.62 fold. For the same molecule, the “increase of MCIP2 transcript levels” value in the experiment on MCIP2 mRNA [5] (both heart and soleus skeletal muscles) is recorded as “approximately 2 fold”. Also, the “T3 Effect, MC1P2 (aggregate fold change, mean ±SE)” value in the experiment on MCIP2 mRNA [5] (heart and soleus) was found to be 1.78 ± 0.01 fold. Besides, the “MC1P1 (fold change in mRNA), Response to Thyroid Hormone” value is 1.05 fold and 0.87 fold and 1.08 fold with MCIP1 mRNA [6] (setting [9]); 0.78 fold and 1.05 fold and 1.24 fold with MCIP1 mRNA [6] (setting [10]). In the experiment with MCIP1 mRNA [6] (heart and soleus), the “T3 Effect, MC1P1 (aggregate fold change, mean ±SE)” value is 1.01 ± 0.06 fold. Besides, the “expression of MCIP1 in hyperthyroid hearts” value in the experiment with MCIP1 mRNA [6] (heart, ten days) is recorded as “unaltered”. For the same molecule, in the experiment with cardiac hypertrophy [7], the mean heart weight stood at 180 mg. In the experiment on cardiac hypertrophy [7], the “mean heart weight/body weight ratio” value is 7.2 mg/gm.
